The results in this text go back to ChEMBL document CHEMBL1138637, “Discovery of potent pyrrolidone-based HIV-1 protease inhibitors with enhanced drug-like properties” (Bioorg Med Chem Lett, 2004).

pIC50, pKi: −log10 of the molar value.

The first experiment has as its target T1, Human immunodeficiency virus type 1 protease (Human immunodeficiency virus 1, UniProt Q72874). The experiment is described as follows: Concentration required to in inhibit HIV-1 protease by 50%.
The pIC50 is −log10 of the IC50, conventionally taken in molar units. A low value points to a large IC50. As to `COc1ccc(S(=O)(=O)N(CC2CCCC2)C[C@@H](O)CN2C(=O)C(Cc3ccccc3)OC[C@@H]2Cc2ccccc2)cc1` (stereo not given in full), the pIC50 was 7.52. On the same count and under the same terms, then `C=CCC1OC[C@H](Cc2ccccc2)N(C[C@H](O)CN(CC2CCCC2)S(=O)(=O)c2ccc(OC)cc2)C1=O` (stereo not given in full), with 8.70.

In the next experiment the target is T1, Human immunodeficiency virus type 1 protease. Briefly: Potency to inhibit HIV-1 protease.
Broadly, the pKi is −log10 of the Ki, conventionally taken in molar units. The molecule `Nc1ccc(CC2C[C@H](Cc3ccccc3)N(C[C@@H](O)C[C@@H](Cc3ccccc3)C(=O)NC3c4ccccc4C[C@H]3O)C2=O)cc1` (stereo not given in full) showed a pKi of 8.64. Still for that read-out and setting: for `O=C(NCCN1CCOCC1)c1cccc(C[C@H]2C[C@H](Cc3ccccc3)N(C[C@@H](O)C[C@@H](Cc3ccccc3)C(=O)N[C@@H]3c4ccccc4C[C@H]3O)C2=O)c1` the value was 9.82; for `CCOC(=O)CNC(=O)Nc1cccc(C[C@H]2C[C@H](Cc3ccccc3)N(C[C@@H](O)C[C@@H](Cc3ccccc3)C(=O)N[C@@H]3c4ccccc4C[C@H]3O)C2=O)c1`, 10.00; for `O=C(NCCOCCO)c1cccc(C[C@H]2C[C@H](Cc3ccccc3)N(C[C@@H](O)C[C@@H](Cc3ccccc3)C(=O)N[C@@H]3c4ccccc4C[C@H]3O)C2=O)c1`, 9.62. The same measure, in the same setting: then `N#Cc1ccc(CC2C[C@H](Cc3ccccc3)N(C[C@@H](O)C[C@@H](Cc3ccccc3)C(=O)NC3c4ccccc4C[C@H]3O)C2=O)cc1` (stereo not given in full), with 9.47.

As for `O=C(NC1c2ccccc2C[C@H]1O)[C@H](Cc1ccccc1)C[C@H](O)CN1C(=O)C(Cc2cccc(O)c2)C[C@@H]1Cc1ccccc1` (single isomer, unassigned; diastereomer 1), the pKi was 10.30. The same measure, in the same setting: for `COC(=O)c1cccc(CC2C[C@H](Cc3ccccc3)N(C[C@@H](O)C[C@@H](Cc3ccccc3)C(=O)NC3c4ccccc4C[C@H]3O)C2=O)c1` (single isomer, unassigned; diastereomer 1) the value was 9.38; for `CCNC(=O)Nc1cccc(C[C@H]2C[C@H](Cc3ccccc3)N(C[C@@H](O)C[C@@H](Cc3ccccc3)C(=O)NC3c4ccccc4C[C@H]3O)C2=O)c1` (stereo not given in full), 9.70. For the molecule `NC(=O)c1cccc(C[C@H]2C[C@H](Cc3ccccc3)N(C[C@@H](O)C[C@@H](Cc3ccc(OCCO)cc3)C(=O)N[C@@H]3c4ccccc4C[C@H]3O)C2=O)c1`, the pKi is 10.30.

In the case of `NC(=O)c1cccc(C[C@H]2C[C@H](Cc3ccccc3)N(C[C@@H](O)C[C@@H](Cc3ccccc3)C(=O)N[C@@H]3c4ccccc4C[C@H]3O)C2=O)c1`, the pKi was 10.00.

`O=C(NC1c2ccccc2C[C@H]1O)[C@H](Cc1ccccc1)C[C@H](O)CN1C(=O)C(Cc2ccncc2)C[C@@H]1Cc1ccccc1` (stereo not given in full) had a negative-log Ki (pKi) of 9.51.

Regarding `NC(=O)Cc1cccc(C[C@H]2C[C@H](Cc3ccccc3)N(C[C@@H](O)C[C@@H](Cc3ccccc3)C(=O)NC3c4ccccc4C[C@H]3O)C2=O)c1` (stereo not given in full), the pKi is 10.05. Still for that read-out and setting: for `C=CC[C@H]1C[C@H](Cc2ccccc2)N(C[C@@H](O)C[C@@H](Cc2ccccc2)C(=O)NC2c3ccccc3C[C@H]2O)C1=O` (stereo not given in full) the value was 9.35.

`Nc1cccc(CC2C[C@H](Cc3ccccc3)N(C[C@@H](O)C[C@@H](Cc3ccccc3)C(=O)NC3c4ccccc4C[C@H]3O)C2=O)c1` (single isomer, unassigned; diastereomer 1) gave a pKi of 10.00. On the same count and under the same terms, for `O=C(NC1c2ccccc2C[C@H]1O)[C@H](Cc1ccccc1)C[C@H](O)CN1C(=O)C(Cc2cccnc2)C[C@@H]1Cc1ccccc1` (stereo in doubt) the value was 9.77; for `O=C(NC1c2ccccc2C[C@H]1O)[C@H](Cc1ccccc1)C[C@H](O)CN1C(=O)C(Cc2cccnc2)C[C@@H]1Cc1ccccc1` (single isomer, unassigned; diastereomer 2), 7.85; for `N#Cc1cccc(CC2C[C@H](Cc3ccccc3)N(C[C@@H](O)C[C@@H](Cc3ccccc3)C(=O)NC3c4ccccc4C[C@H]3O)C2=O)c1` (single isomer, unassigned; diastereomer 1), 10.30. For `N#CCOc1cccc(C[C@H]2C[C@H](Cc3ccccc3)N(C[C@@H](O)C[C@@H](Cc3ccccc3)C(=O)NC3c4ccccc4C[C@H]3O)C2=O)c1` (stereo not given in full), the pKi is 10.10.
